Source: patent US20250325676A1, “CAMPTOTHECIN PRODRUG AND PHARMACEUTICAL COMPOSITION THEREOF” (TIANJIN HEMAY ONCOLOGY PHARMACEUTICAL CO., LTD, priority 2022, published 2025)
Where two headings read alike, the source gives them in different places.

Assays:
human colon cancer SW620 = settings: 30 mg/kg i.v. qw × 2, SW620 model
Method: An allogeneic transplantation model of human colon cancer SW620 was established in nude mice subcutaneously using a tumor block inoculation method. When the tumor volume of the allogeneic transplantation was about 100 to 300 mm^3 and remained stable, the experimental animals were randomly divided into groups according to the size of the tumor volume (day 0) by using a remainder method. The tumor volume was measured 2 to 3 times a week. At the end of the dosage period, the experimental animals were sacrificed. The subcutaneous tumors were peeled and weighed. The anti-tumor activity of the drug against the model was evaluated based on tumor volume and tumor weight-related data.
(§4) The calculation formula of the tumor volume was: Volume=0.5×long diameter×short diameter×short diameter.
(§5) V0 was the resulting tumor volume measured at the time of dosing in groups (i.e., d0) and Vt was the tumor volume at each measurement.
TRTV was the average value of RTV of the subject, and CRTV was the average RTV of the model control group.
(§6) Wn: average body weight of each group of experimental animals on day n, and W0: average body weight of each group of experimental animals on day 0.

BEL-7404 = experiment: In vitro inhibition of human tumor cells, BEL-7404, SRB method
Method: (§7) 1.1.2 Cell culture method: Cells were cultured in complete medium, 37° C., 5% CO2, saturated humidity to log growth phase (adherent cells generally attended to complete fusion), and cells were collected for subsequent experiments (adherent cells were first digested with trypsin/ethylene diamine tetraacetic acid (EDTA) to remove adherent).
(§8) 1.1.3 96-well cell culture plates (hereinafter referred to as 96-well plates) were inoculated with a certain number of cells (see Table 1 for details). The cells were allowed to adhere overnight. […] Finally, the total amount of cell protein in the assay wells was determined by the SRB method, or the cell viability was determined by the MTT method:
(§9) The culture medium was aspirated from the wells and the cells were fixed for 1 hour or more by adding 10% trichloroacetic acid. Trichloroacetic acid was removed. The resultant was washed with H2O and stained with 0.4% SRB for 15 to 30 minutes. Excess SRB was removed. The resultant was washed with 1% acetic acid. The protein-bound SRB was dissolved by adding 10 mM of 100 μl Tris (trishydroxymethylaminomethane). Tests were carried out at the wavelength of 570 nm.
(§10) 1.1.4 dilution and addition of β-glucuronidase: 1 to 2 mg of β-glucuronidase was weighed and dissolved in PBS to give a 2 mg/ml of stock solution. […] 80 μl of enzyme working solution was added to the enzyme-containing assay wells. The amount of β-glucuronidase was 1 μg/wells. No enzyme-containing assay wells were added to the 80 μl of complete medium.
(§11) The assay wells were charged with 20 μl of 10× compound working solution. The final volume was 200 μl per well. The DMSO concentration was 0.1%.
(§12) 1.1.6 Compound inhibition activity calculation: The test included a compound test group, a compound-free positive solvent control group (PC) and a compound-free negative solvent control group (NC). […] The average inhibition rate and the standard deviation (SD) were obtained from the repeated test wells. The average inhibition rate was plotted on the basis of the compound concentration as an abscissa and distributed in the form of logarithms. The curve was fitted to the Logistic 4 parameter equation. […] The test was generally repeated to obtain 3 valid results.

BxPC-3 = experiment: In vitro inhibition of human tumor cells, BxPC-3, MTT method; assay type: cell-based
NCI-H460 = experiment: In vitro inhibition of human tumor cells, NCI-H460, MTT method; assay type: cell-based
human colon cancer LoVo = settings: 30 mg/kg i.v. qw × 2, LoVo model
Method: An allogeneic transplantation model of human colon cancer LoVo was established in nude mice subcutaneously using a tumor block inoculation method. When the tumor volume of the allogeneic transplantation was about 100 to 300 mm^3 and kept stable, the experimental animals were randomly divided into groups according to the tumor volume (day 0) by using a remainder method. The tumor volume was measured 2 to 3 times a week. At the end of the dosage period, the experimental animals were sacrificed. The subcutaneous tumors were peeled and weighed. The anti-tumor activity of the drug against the model was evaluated based on tumor volume and tumor weight-related data.
as §4
V0 was the resulting tumor volume measured at the time of dosing in groups (i.e., d0) and Vt is the tumor volume at each measurement.
(§13) T was the subject and C was the model control.
TRTV was the average RTV of the subject and CRTV was the average RTV of the model control group.
as §6

HCT116 = experiment: In vitro inhibition of human tumor cells, HCT116, MTT method; assay type: cell-based
MDA-MB-468 = experiment: In vitro inhibition of human tumor cells, MDA-MB-468, SRB method
Method: as §7, §8, §9, §10, §11, §12

Fadu = experiment: In vitro inhibition of human tumor cells, Fadu, MTT method; assay type: cell-based
A375 = experiment: In vitro inhibition of human tumor cells, A375, SRB method
Method: as §7, §8, §9, §10, §11, §12

SW620 = experiment: In vitro inhibition of human tumor cells, SW620, SRB method; assay type: cell-based
Text: (§1) The cells were allowed to adhere overnight.
(§2) Trichloroacetic acid was removed. […] Excess SRB was removed.
(§3) The DMSO concentration was 0.1%.

LoVo = experiment: In vitro inhibition of human tumor cells, LoVo, SRB method; assay type: cell-based
Text: as §1, §2, §3

NCI-N87 = experiment: In vitro inhibition of human tumor cells, NCI-N87, MTT method; assay type: cell-based
22RV1 = experiment: In vitro inhibition of human tumor cells, 22RV1, SRB method
Method: as §7, §8, §9, §10, §11, §12

[1] = system: human pancreatic cancer BxPC-3; settings: 30 mg/kg i.v. qw × 2
Method: (§14) When the tumor volume of the allogeneic transplantation was about 100 to 300 mm^3 and remained stable, the experimental animals were randomly divided into groups according to the size of the tumor volume (day 0) by using a remainder method. The tumor volume was measured 2 to 3 times a week. At the end of the dosage period, the experimental animals were sacrificed. The subcutaneous tumors were peeled and weighed. The anti-tumor activity of the drug against the model was evaluated based on tumor volume and tumor weight-related data.
as §4, §5, §13
(§15) TRTV was the average RTV of the subject, and CRTV was the average RTV of the model control group.
as §6
(§16) In the large tumor efficacy test after the second grouping of the G5 group, since the number of samples in each group of G6.1 and G6.4 was less than three, the relevant data of the large tumor efficacy test were statistically analyzed among groups using the T-Test method.

[2] = system: human pancreatic cancer BxPC-3; experiment: Growth of human pancreatic cancer BxPC-3 in allogeneic transplantation model; assay type: in vivo, nude mice; settings: 25 mg/kg i.v. qw × 2, BxPC-3 model
Method: as §14, §4, §5, §13, §15, §6, §16

[3] = system: human colon cancer HCT116; settings: 30 mg/kg i.v. qw × 2
Text: When the tumor volume was more than 600 mm^3 and stable growth was maintained, the experimental animals were randomly divided by the remainder method and administered according to the size of the tumor volume. […] The subcutaneous tumors were stripped and weighed.
T was the subject and C is the model control.
Tumor volume growth was observed on a regular basis after completion of dosing.

[4] = system: human colon cancer HCT116; experiment: Growth of human colon cancer HCT116 in allogeneic transplantation model; assay type: in vivo, nude mice
Method: as §14, §4, §5, §15, §6

[5] = system: human gastric cancer NCI-N87; experiment: Growth of human gastric cancer NCI-N87 in allogeneic transplantation model; assay type: in vivo, nude mice
Method: The tumor volume was measured 2 to 3 times per week. […] The subcutaneous tumors were peeled and weighed.
The calculation formula of the tumor volume: Volume=0.5×long diameter×short diameter×short diameter.

[6] = system: human small cell lung cancer NCI-H446; settings: 20 mg/kg i.v. qw × 2, NCI-H446 model
Method: An allogeneic transplantation model of human small cell lung cancer NCI-H446 was established in nude mice subcutaneously using a tumor block inoculation method. When the tumor volume of the allogeneic transplantation was about 100 to 300 mm^3 and remained stable, the experimental animals were randomly divided into groups according to the size of the tumor volume (day 0, i.e., d0) using a remainder method. The tumor volume was measured 2 to 3 times a week. At the end of the dosage period, the experimental animals were sacrificed. The subcutaneous tumors were peeled and weighed. The anti-tumor activity of the drug against the model was evaluated based on tumor volume and tumor weight-related data.
as §4, §5, §13, §15, §6

[7] = No βGU (direct effects of compound on cells)
[8] = BxPC-3 large tumors after irinotecan
[9] = HCT116 large tumor after irinotecan

For “(2S,3S,4S,5R,6S)-6-(3-((1-(6-((4′-((E)-(8-amino-1-hydroxy-5,7-disulfonicnaphthalen-2-yl)diazenyl)-[1,1′-biphenyl]-4-yl)amino)-6-oxohexyl)-1H-1,2,3-triazol-4-yl)methoxy)-4-((((S)-4,11-diethyl-4-hydroxy-3,14-dioxo-3,4,12,14-tetrahydro-1H-pyrano[3′,4′:6,7]indolazino[1,2-b]quinolin-9-yl)oxy)methyl)phenoxy)-3,4,5-trihydroxytetrahydro-2H-pyran-2-carboxylate trisodium [Example 78]”, the “T/C (%)” value (human colon cancer SW620) was 0.6%, the “Tumor inhibition rate (%)” value (human colon cancer SW620) was 99.4% and the IC50 (BEL-7404; Adding βGU) was 35 nM. It also gave an IC50 (BEL-7404; No βGU) of 458 nM, an IC50 (BxPC-3; Adding βGU) of 13 nM and an IC50 (BxPC-3; No βGU) of 610 nM. For the same compound, the IC50 (NCI-H460; Adding βGU) was 9.6 nM, the IC50 (NCI-H460; No βGU) was 530 nM and the “T/C (%)” value (human colon cancer LoVo) was 15.8%. The “Tumor inhibition rate (%)” value (human colon cancer LoVo) was 88.2%, the IC50 (HCT116; Adding βGU (β-glucuronidase)) was 2.4 nM and the IC50 (HCT116; [7]) was 42 nM. The IC50 (MDA-MB-468; Adding βGU) was 3.3 nM, the IC50 (MDA-MB-468; No βGU) was 28 nM and the IC50 (Fadu; Adding βGU) was 6.9 nM. It also gave an IC50 (Fadu; No βGU) of 346 nM, an IC50 (A375; Adding βGU) of 22 nM and an IC50 (A375; No βGU) of 984 nM. For the same compound, the IC50 (SW620; Adding βGU) was 7.3 nM, the IC50 (SW620; No βGU) was 329 nM and the IC50 (LoVo; Adding βGU) was 11 nM. It also gave an IC50 (LoVo; No βGU) of 301 nM, an IC50 (NCI-N87; Adding βGU) of 26 nM and an IC50 (NCI-N87; No βGU) of 170 nM. The IC50 (22RV1; Adding βGU) was 7.6 nM and the IC50 (22RV1; No βGU) was 267 nM.
In the case of `CCc1c2c(nc3ccc(OCc4ccc(O[C@@H]5O[C@H](C(=O)[O-])[C@@H](O)[C@H](O)[C@H]5O)cc4OCc4cn(CCCCCC(=O)Nc5ccc(-c6ccc(/N=N/c7ccc8c(S(=O)(=O)[O-])cc(S(=O)(=O)[O-])c(N)c8c7O)c(C)c6)cc5C)nn4)cc13)-c1cc3c(c(=O)n1C2)COC(=O)[C@]3(O)CC.[Na+].[Na+].[Na+]` [Example 7, (2S,3S,4S,5R,6S)-6-(3-((1-(6-((4′-((E)-(8-amino-1-hydroxy-5,7-disulfonicnaphthalen-2-yl)diazenyl)-3,3′-dimethyl-[1,1′-biphenyl]-4-yl)amino)-6-oxohexyl)-1H-1,2,3-triazol-4-yl)methoxy)-4-((((S)-4,11-diethyl-4-hydroxy-3,14-dioxy-3,4,12,14-tetrahydro-1H-pyrano[3′,4′:6,7]indolazino[1,2-b]quinolin-9-yl)oxy)methyl)phenoxy)-3,4,5-trihydroxytetrahydro-2H-pyran-2-carboxylate trisodium], the “T/C (%)” value (human colon cancer SW620) is reported as 0.6%, the “Tumor inhibition rate (%)” value (human colon cancer SW620) is reported as 99.7% and the “Final body weight change (%)” value (human colon cancer SW620; nude mouse) is reported as −4.6%. The “Relative volume RTV (X ± S.D.)” value [1, 8] was 0.28 ± 0.03, the “T/C (%)” value [1, 8] was 7.7% and the “Tumor inhibition rate (%)” value [1, 8] was 94.2%. For the same compound, the “Tumor weight (g, X ± S.D.)” value [1, 8] was 0.174 ± 0.164 g, the “Final body weight change (%)” value ([1]; BxPC-3 tumors more than 600 mm^3 after irinotecan 100 mg/kg i.p. qw × 2) was −0.3% and the IC50 (BEL-7404; Adding βGU) was 33 nM. The IC50 (BEL-7404; No βGU) was 514 nM, the IC50 (BxPC-3; Adding βGU) was 27 nM and the IC50 (BxPC-3; No βGU) was 1110 nM. The IC50 (NCI-H460; Adding βGU) was 14 nM, the IC50 (NCI-H460; No βGU) was 219 nM and the “T/C (%)” value (human colon cancer LoVo) was 12.3%. The “Tumor inhibition rate (%)” value (human colon cancer LoVo) was 91.1%, the “Final body weight change (%)” value (human colon cancer LoVo; nude mouse) was 0.0% and the “Relative volume RTV (X ± S.D.)” value [2] was 0.23 ± 0.08. The “T/C (%)” value [2] was 4.9%, the “Tumor inhibition rate (%)” value [2] was 96.7% and the “Tumor weight (g, X ± S.D.)” value [2] was 0.055 ± 0.037 g. The “Final body weight change (%)” value ([2]; nude mouse) was 2.9%, the IC50 (HCT116; Adding βGU (β-glucuronidase)) was 3.9 nM and the IC50 (HCT116; [7]) was 147 nM. For the same compound, the IC50 (MDA-MB-468; Adding βGU) was 6.8 nM, the IC50 (MDA-MB-468; No βGU) was 70 nM and the IC50 (Fadu; Adding βGU) was 8.5 nM. The IC50 (Fadu; No βGU) was 242 nM, the IC50 (A375; Adding βGU) was 10 nM and the IC50 (A375; No βGU) was 600 nM. For the same compound, the “Relative volume RTV (X ± S.D.)” value [3, 9] was 1.10 ± 0.16, the “T/C (%)” value [3, 9] was 29.6% and the “Tumor inhibition rate (%)” value [3, 9] was 73.6%. For the same compound, the “Tumor weight (g, X ± S.D.)” value [3, 9] was 0.720 ± 0.492 g, the “Final body weight change (%)” value ([3]; HCT116 tumors more than 600 mm^3 after irinotecan 100 mg/kg qw×2) was −10.7% and the “T/C (%)” value ([4]; 10 mg/kg i.v. qw × 2) was 13.3%. The “Tumor inhibition rate (%)” value ([4]; 10 mg/kg i.v. qw × 2) was 90.0%, the “Final body weight change (%)” value ([4]; 10 mg/kg i.v. qw × 2, nude mouse) was −12.8% and the “Relative volume RTV (X ± S.D.)” value ([5]; 20 mg/kg i.v. qw × 2) was 0.69 ± 0.15. For the same compound, the “T/C (%)” value ([5]; 20 mg/kg i.v. qw × 2) was 13.6%, the “Tumor inhibition rate (%)” value ([5]; 20 mg/kg i.v. qw × 2) was 94.2% and the “Tumor weight (g, X ± S.D.)” value ([5]; 20 mg/kg i.v. qw × 2) was 0.069 ± 0.009 g. The “Final body weight change (%)” value ([5]; 20 mg/kg i.v. qw × 2, nude mouse) was 13.6%, the IC50 (SW620; Adding βGU) was 6.9 nM and the IC50 (SW620; No βGU) was 306 nM. The IC50 (LoVo; Adding βGU) was 19 nM, the IC50 (LoVo; No βGU) was 253 nM and the “Relative volume RTV (X ± S.D.)” value [6] was 0.11 ± 0.02. For the same compound, the “T/C (%)” value [6] was 1.5%, the “Tumor inhibition rate (%)” value [6] was 98.9% and the “Tumor weight (g, X ± S.D.)” value [6] was 0.011 ± 0.005 g. For the same compound, the “Final body weight change (%)” value ([6]; nude mouse) was 4.1%, the IC50 (NCI-N87; Adding βGU) was 24 nM and the IC50 (NCI-N87; No βGU) was 1140 nM. The IC50 (22RV1; Adding βGU) was 5.2 nM and the IC50 (22RV1; No βGU) was 147 nM.
